Results on 107 compounds are retold here after PubChem BioAssay AID1552 (Sanford-Burnham Center for Chemical Genomics, 2009).

The source made the active and inactive calls. The rule behind the calls is not given here. Bounds are passed on as bounds.

Ubiquitin-conjugating enzyme E2 N (Homo sapiens), sequence (P61088 whole entry, looked up): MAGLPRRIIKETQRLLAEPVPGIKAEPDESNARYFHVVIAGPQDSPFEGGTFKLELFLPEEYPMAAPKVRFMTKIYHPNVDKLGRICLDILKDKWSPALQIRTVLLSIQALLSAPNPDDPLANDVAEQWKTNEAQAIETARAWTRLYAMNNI

The assay concerns the target Ubiquitin-conjugating enzyme E2 N (Homo sapiens) (UniProt P61088). As to the kind of experiment: NMR detection of UBE2N ligand binding – biophysical, purified protein (AID 1552). The conditions noted are these: NMR binding to purified UBE2N.
Turning to `COC(=O)C[C@H]1C(C)(C)C(=O)[C@@H]2CC3=C(CC[C@]4(C)C3=CC(=O)O[C@H]4c3ccoc3)C1(C)C2=O`, the Kd was > 4 mM (inactive).
For `Cc1ccc(N2CCN(C(=O)c3ccccc3)CC2)c(C)c1`, the Kd was > 4 mM (inactive).
As to `O=C(c1cnsn1)N1CCN(c2ccccn2)CC1`, the Kd is > 4 mM (inactive).
For `CC(C)=CC(=O)Nc1ccc(S(N)(=O)=O)cc1` the value was > 4 mM (inactive); for `COc1ccccc1-c1nc(-c2ccc(C)nc2OC)no1`, > 4 mM (inactive); for `S=c1ccc(N2CCCCC2)n[nH]1`, > 4 mM (inactive).
On to `CC(=O)Nc1ccc(-c2nc(C)c(C(C)=O)n2O)cc1`, for which the Kd was > 4 mM (inactive).
In the case of `Nc1ccc(S(=O)(=O)N2CCOCC2)cc1` it was > 4 mM (inactive).
For `Cc1nc2c(=O)[nH]c3ccccc3c2o1` the value was > 4 mM (inactive); for `CNCc1ccccc1`, > 4 mM (inactive).
On to `OCc1ccc2c(c1)OCO2`, for which the Kd is > 4 mM (inactive).
For `OC12CC3CC(C1)C1(NCCS1)C(C3)C2` (configuration not stated), the Kd was > 4 mM (inactive).
Regarding `O=C1C2CC=CCC2C(=O)N1c1ccccc1O` (configuration not stated), the Kd is > 4 mM (inactive).
For `COc1ccc(Cl)cc1-c1nc(-c2ccncc2)no1`, the Kd was > 4 mM (inactive).
For `O=C(O)CCCCC1SCC2NC(=O)NC21` (configuration not stated), the Kd was > 4 mM (inactive).
For `OCc1ccc(CN2CCOCC2)cc1` the value was > 4 mM (inactive); for `Cn1cc(Cl)c(C(=O)NC2CCCCCC2)n1`, > 4 mM (inactive); for `CCSc1nnc(-c2ccccc2N)c(=O)[nH]1`, > 4 mM (inactive).
On to `CCC(=O)Oc1ccc(N2C(=O)CCC2=O)cc1`, for which the Kd was > 4 mM (inactive).
For `CS(=O)(=O)c1ccc(N)cc1` the value was > 4 mM (inactive).
In the case of `NC(=O)CC1NC(=O)c2ccccc21` (configuration not stated) it was > 4 mM (inactive).
In the case of `CN1CCC(NC(=O)c2c(F)cccc2Cl)CC1` it was > 4 mM (inactive); in that of `Cc1ccn(S(=O)(=O)c2ccc(C(C)(C)C)cc2)n1`, > 4 mM (inactive).
As to `O=C(O)C1CCCCN1Cc1ccccc1` (configuration not stated), the Kd is > 4 mM (inactive).
For `CCC(C)C(=O)c1c(O)c(C)c2oc3c(C)c(O)c(C(=O)C(C)CC)c(O)c3c2c1O` (configuration not stated) the value was > 4 mM (inactive).
With `CC1/C(=N/O)C[C@@H]2C[C@H]1C2(C)C` (some centres not stated), the Kd is > 4 mM (inactive).
Regarding `Cc1noc(C)c1C(=O)N1CCN(c2ncccn2)CC1`, the Kd was > 4 mM (inactive).
In the case of `CC1(C)CC[C@]2(C(=O)O)CC[C@]3(C)C(=CCC4[C@@]5(C)CC[C@H](O)[C@@](C)(CO)C5CC[C@]43C)C2C1` (some centres not stated) it was > 4 mM (inactive); in that of `COc1ccc(N=C2NC(=O)CS2)cc1`, > 4 mM (inactive).
For `O=C(CNC(=O)c1cccs1)NC1=NCCS1` the value was > 4 mM (inactive); for `Cc1ccc(S(=O)(=O)CC(=O)N2CCCC2)cc1`, > 4 mM (inactive).
Consider `COc1c(O)cccc1O`, for which the Kd is > 4 mM (inactive).
For `O=C(c1ccccc1)c1ccccc1C(=O)N1CCOCC1` the value was > 4 mM (inactive).
In the case of `COc1cccc(OC)c1C(=O)N1CCOCC1` it was > 4 mM (inactive); in that of `CC(C)[C@@H]1CC[C@@H](C)C[C@H]1O`, > 4 mM (inactive).
Regarding `O=C(O)c1ccccc1C(=O)Nc1ccccc1`, the Kd is > 4 mM (inactive).
In the case of `Cc1cc(C)c(C(N)=O)c(=S)[nH]1` it was > 4 mM (inactive); in that of `O=C1CCCN1C(=O)CN1CCOCC1`, > 4 mM (inactive); in that of `CC(=O)Nc1sc(C)c(C)c1C(N)=O`, > 4 mM (inactive).
As for `Cc1ccc(N)nc1`, the Kd is > 4 mM (inactive).
For `CC(=O)NC(=S)Nc1cccc(C(=O)O)c1C` the value was > 4 mM (inactive); for `CC(=O)Nc1cc(S(=O)(=O)N(C)C)ccc1Cl`, > 4 mM (inactive); for `Cc1cc(=O)n2[nH]cnc2n1`, > 4 mM (inactive).
Turning to `COc1ccc(C)cc1S(=O)(=O)Nc1ccccc1C`, the Kd is > 4 mM (inactive).
For `CCN1CCN(CCCNc2ncnc3nc[nH]c23)CC1` the value was > 4 mM (inactive); for `OCC1CN(Cc2ccccc2)CCO1` (configuration not stated), > 4 mM (inactive).
In the case of `O=C(O)c1cccc2c1OCCO2` it was > 4 mM (inactive).
For `Nc1nnc(COc2cccc(C(F)(F)F)c2)s1` the value was > 4 mM (inactive); for `CCOC(=O)c1ccc(Oc2ccc(C)nn2)cc1`, > 4 mM (inactive); for `O=C(O)Cc1nc(-c2ccncc2)n[nH]1`, > 4 mM (inactive).
Consider `CC12CCCC(O)(C1)C1CC(C)(C)C1CC2` (configuration not stated), for which the Kd is > 4 mM (inactive).
In the case of `Clc1ccc2c(N3CCNCC3)ccnc2c1` it was > 4 mM (inactive).
With `CSc1nnc(-c2ccccc2NC(C)=O)o1`, the Kd was > 4 mM (inactive).
Consider `O=C(CNC(=O)c1ccc(F)cc1)NC1=NCCS1`, for which the Kd is > 4 mM (inactive).
For `COc1ccc(-c2coc3c(OC)c(OC)cc(O)c3c2=O)cc1`, the Kd was > 4 mM (inactive).
For `O=C(c1ccccc1)N1CCNCC1`, the Kd was > 4 mM (inactive).
For `Nc1ncnc2nc[nH]c12` the value was > 4 mM (inactive).
In the case of `COC(=O)c1cnccc1C(F)(F)F` it was > 4 mM (inactive); in that of `CC1(C)C=Cc2c(cc3occ(-c4ccc5c(c4)OCO5)c(=O)c3c2O)O1`, > 4 mM (inactive); in that of `Cc1ccccc1NC(=O)C1CCC(=O)N1` (configuration not stated), > 4 mM (inactive).
Turning to `COc1ccc(/C=C/c2cc(O)cc(O)c2)cc1`, the Kd is > 4 mM (inactive).
Consider `O=C(Nc1cccnc1)N1CCOCC1`, for which the Kd was > 4 mM (inactive).
For `Cc1cc(C)n(S(=O)(=O)c2cc(C)c(C)cc2C)n1` the value was > 4 mM (inactive); for `COc1ccc(C(C)=O)c(OC)c1`, > 4 mM (inactive).
On to `NC(CC(=O)O)c1ccccc1` (configuration not stated), for which the Kd is > 4 mM (inactive).
`Cc1cc(NC(=O)c2c(F)c(F)c(F)c(F)c2F)no1`: the Kd is > 4 mM (inactive).
Take `O=C(O)c1[nH]nc2c1COc1ccccc1-2`: the Kd is > 4 mM (inactive).
Regarding `Cc1nnc(SCC(=O)NCc2ccccc2)[nH]c1=O`, the Kd is > 4 mM (inactive).
For `Oc1ccc2c(c1)OCC1(O)Cc3cc(O)c(O)cc3C21` (configuration not stated) the value was > 4 mM (inactive); for `NC(=O)Cn1cnc2c(cnn2-c2ccccc2)c1=O`, > 4 mM (inactive); for `O=C(Nc1ccon1)c1cc2c(s1)CCCC2`, > 4 mM (inactive).
For `COC(=O)C1=CO[C@@H](O[C@@H]2O[C@H](CO)[C@@H](O)[C@H](O)[C@H]2O)[C@@H]2[C@@H](C)[C@@H](O)C[C@H]12` the value was > 4 mM (inactive); for `CCSc1nc2ccccc2[nH]1`, > 4 mM (inactive).
In the case of `NC(=O)CSc1nnnn1-c1ccccc1` it was > 4 mM (inactive); in that of `O=C(/C(=N\O)n1cncn1)c1ccccc1Cl`, > 4 mM (inactive).
Turning to `O=C(O)c1ccc(N2CCOCC2)cc1`, the Kd is > 4 mM (inactive).
For `NC(=O)c1cccc2c1OCCO2` the value was > 4 mM (inactive); for `CC(=O)c1ccc[nH]1`, > 4 mM (inactive).
In the case of `CC(=O)NC1=C(N(C)C)C(=O)c2ccccc2C1=O` it was > 4 mM (inactive); in that of `N/N=C/c1cccnc1`, > 4 mM (inactive).
For `Cc1sc2nc3n(c(=O)c2c1C)CCCS3` the value was > 4 mM (inactive); for `N[C@@H](C(=O)O)[C@@H](O)[C@H](O)[C@H](O)CO`, > 4 mM (inactive); for `CN1CCC(NC(=O)c2cnccn2)CC1`, > 4 mM (inactive).
For `NC(=O)NC1NC(=O)NC1=O` (configuration not stated), the Kd was > 4 mM (inactive).
For `CC(=O)Nc1sccc1C(N)=O` the value was > 4 mM (inactive); for `c1ccc(Cc2nnc3sc(-c4cccnc4)nn23)cc1`, > 4 mM (inactive).
For `O=C(O)C1CC(=O)N(Cc2cccs2)C1` (configuration not stated), the Kd was > 4 mM (inactive).
For `N#CCCn1c(=O)oc2ccccc21` the value was > 4 mM (inactive).
In the case of `[O-][n+]1c2ccccc2[n+]([O-])c2cc(O)ccc21` it was > 4 mM (inactive); in that of `Cn1ncc(CO)c1-c1ccccc1`, > 4 mM (inactive).
Turning to `COc1cc2c(cc1OC)-c1nnnn1C(C)(C)C2`, the Kd is > 4 mM (inactive).
In the case of `O=C(c1ccccc1)c1cncc(Br)c1` it was > 4 mM (inactive).
Take `CC1=NNC(=O)C1CCc1ccncc1` (configuration not stated): the Kd was > 4 mM (inactive).
For the compound `NC(=O)c1ccsc1NC(=O)C1=COCCO1`, the Kd was > 4 mM (inactive).
For `Cc1cc(NC(=O)c2ccccc2C(=O)O)no1` the value was > 4 mM (inactive); for `Cc1onc(-c2ccccc2)c1CN`, > 4 mM (inactive).
Regarding `COc1ccc(-c2ccc(=O)n(CC(N)=O)n2)cc1`, the Kd is > 4 mM (inactive).
As for `OCc1ccc2c(c1)OCCCO2`, the Kd was > 4 mM (inactive).
For `Clc1ccccc1OCc1nc(-c2ccncc2)no1` the value was > 4 mM (inactive); for `OCc1ccc2c(c1)OCCO2`, > 4 mM (inactive); for `CC(C)=NNC(=O)C(=O)NC(C)(C)C`, > 4 mM (inactive).
In the case of `COc1ccc(O)c(-c2cn[nH]c2-c2cccs2)c1` it was > 4 mM (inactive).
In the case of `NC1=NC(=O)/C(=C/c2ccccc2[N+](=O)[O-])S1` it was > 4 mM (inactive); in that of `O=C(c1nc2ncccn2n1)N1CCc2ccccc2C1`, > 4 mM (inactive); in that of `COc1cc([C@@H]2c3cc4c(c(O)c3C[C@H]3COC(=O)[C@@H]32)OCO4)cc(OC)c1OC`, > 4 mM (inactive).
On to `CC(=O)Nc1sccc1C(=O)NC(N)=O`, for which the Kd was > 4 mM (inactive).
As to `NCc1cccc2c1OCCO2`, the Kd was > 4 mM (inactive).
